# Reference: the supplement of paper PMC10307832
# Legend:
# Experiment in all cases: relative viability (nuclei count vs DMSO), 5 days (fraction); higher = more cells survive
# NCI-H1755 = system: NCI-H1755
# Outline: (§1)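 Nuclei were stained with Hoechst during a one-step fixation (final 0.05% Triton X-100, 1% formaldehyde, 1 ug/ml Hoechst) carried out 5 days after dosing, then counted on 4× images. The cells, lung cancer lines in 1536-well plates, had been dosed by pin tool the day after seeding with one drug alone or a fixed anchor-drug dose plus five library-drug doses (not always all listed) in √10 steps. Relative viability is the nuclei count in treated wells divided by that in vehicle wells, and each value is the median of duplicate plates.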
# LU99A = system: LU99A
# Outline: as §1
# NCI-H1437 = system: NCI-H1437
# Outline: as §1
# NCI-H2085 = system: NCI-H2085
# Outline: as §1
# NCI-H1666 = system: NCI-H1666
# Outline: as §1
# NCI-H1650 = system: NCI-H1650
# Outline: as §1
# NCI-H1651 = system: NCI-H1651
# Outline: as §1
# COR-L23 = system: COR-L23
# Outline: as §1
# NCI-H1792 = system: NCI-H1792
# Outline: as §1
# NCI-H1355 = system: NCI-H1355
# Outline: as §1
# BEN = system: BEN
# Outline: as §1
# HCC-44 = system: HCC-44
# Outline: as §1
# NCI-H1563 = system: NCI-H1563
# Outline: as §1
# LXF-289 = system: LXF-289
# Outline: as §1
# NCI-H1993 = system: NCI-H1993
# Outline: as §1
# NCI-H2087 = system: NCI-H2087
# Outline: as §1
# NCI-H520 = system: NCI-H520
# Outline: as §1
# CAL-12T = system: CAL-12T
# Outline: as §1
# PC-14 = system: PC-14
# Outline: as §1
# NCI-H460 = system: NCI-H460
# Outline: as §1
# SK-MES-1 = system: SK-MES-1
# Outline: as §1
# NCI-H2170 = system: NCI-H2170
# Outline: as §1
smiles,measurement,setting,value
CN1CCN(CCOc2cc(OC3CCOCC3)c3c(Nc4c(Cl)ccc5c4OCO5)ncnc3c2)CC1 [Saracatinib] + Nc1nc2[nH]cc(CCc3ccc(C(=O)N[C@@H](CCC(=O)O)C(=O)O)cc3)c2c(=O)[nH]1 [Pemetrexed] (partner 0.2 µM),relative viability,NCI-H1755; first compound 0.02 µM,0.465
same,relative viability,NCI-H1755; first compound 0.2 µM,0.409
same,relative viability,NCI-H1755; first compound 0.6325 µM,0.424
same,relative viability,NCI-H1755; first compound 2 µM,0.394
same,relative viability,LU99A; first compound 0.02 µM,0.205
same,relative viability,LU99A; first compound 0.2 µM,0.214
same,relative viability,LU99A; first compound 0.6325 µM,0.173
same,relative viability,LU99A; first compound 2 µM,0.165
same,relative viability,NCI-H1437; first compound 0.02 µM,0.329
same,relative viability,NCI-H1437; first compound 0.2 µM,0.247
same,relative viability,NCI-H1437; first compound 0.6325 µM,0.277
same,relative viability,NCI-H1437; first compound 2 µM,0.286
same,relative viability,NCI-H2085; first compound 0.02 µM,0.929
same,relative viability,NCI-H2085; first compound 0.2 µM,0.838
same,relative viability,NCI-H2085; first compound 0.6325 µM,0.85
same,relative viability,NCI-H2085; first compound 2 µM,0.63
same,relative viability,NCI-H1666; first compound 0.02 µM,0.877
same,relative viability,NCI-H1666; first compound 0.2 µM,0.508
same,relative viability,NCI-H1666; first compound 0.6325 µM,0.878
same,relative viability,NCI-H1666; first compound 2 µM,0.841
same,relative viability,NCI-H1650; first compound 0.02 µM,0.343
same,relative viability,NCI-H1650; first compound 0.2 µM,0.357
same,relative viability,NCI-H1650; first compound 0.6325 µM,0.318
same,relative viability,NCI-H1650; first compound 2 µM,0.307
same,relative viability,NCI-H1651; first compound 0.02 µM,0.633
same,relative viability,NCI-H1651; first compound 0.2 µM,0.566
same,relative viability,NCI-H1651; first compound 0.6325 µM,0.621
same,relative viability,NCI-H1651; first compound 2 µM,0.581
same,relative viability,COR-L23; first compound 0.02 µM,0.211
same,relative viability,COR-L23; first compound 0.2 µM,0.2
same,relative viability,COR-L23; first compound 0.6325 µM,0.176
same,relative viability,COR-L23; first compound 2 µM,0.184
same,relative viability,NCI-H1792; first compound 0.02 µM,1.06
same,relative viability,NCI-H1792; first compound 0.2 µM,0.644
same,relative viability,NCI-H1792; first compound 0.6325 µM,1.12
same,relative viability,NCI-H1792; first compound 2 µM,0.788
same,relative viability,NCI-H1355; first compound 0.02 µM,1
same,relative viability,NCI-H1355; first compound 0.2 µM,1.02
same,relative viability,NCI-H1355; first compound 0.6325 µM,1
same,relative viability,NCI-H1355; first compound 2 µM,1.06
same,relative viability,BEN; first compound 0.02 µM,0.916
same,relative viability,BEN; first compound 0.2 µM,0.824
same,relative viability,BEN; first compound 0.6325 µM,0.727
same,relative viability,BEN; first compound 2 µM,0.667
same,relative viability,HCC-44; first compound 0.02 µM,0.645
same,relative viability,HCC-44; first compound 0.2 µM,0.607
same,relative viability,HCC-44; first compound 0.6325 µM,0.618
same,relative viability,HCC-44; first compound 2 µM,0.667
same,relative viability,NCI-H1563; first compound 0.02 µM,0.946
same,relative viability,NCI-H1563; first compound 0.2 µM,0.576
same,relative viability,NCI-H1563; first compound 0.6325 µM,0.742
same,relative viability,NCI-H1563; first compound 2 µM,0.592
same,relative viability,LXF-289; first compound 0.02 µM,0.875
same,relative viability,LXF-289; first compound 0.2 µM,0.902
same,relative viability,LXF-289; first compound 0.6325 µM,0.985
same,relative viability,LXF-289; first compound 2 µM,1
same,relative viability,NCI-H1993; first compound 0.02 µM,0.626
same,relative viability,NCI-H1993; first compound 0.2 µM,0.519
same,relative viability,NCI-H1993; first compound 0.6325 µM,0.642
same,relative viability,NCI-H1993; first compound 2 µM,0.471
same,relative viability,NCI-H2087; first compound 0.02 µM,0.63
same,relative viability,NCI-H2087; first compound 0.2 µM,0.722
same,relative viability,NCI-H2087; first compound 0.6325 µM,0.574
same,relative viability,NCI-H2087; first compound 2 µM,0.707
same,relative viability,NCI-H520; first compound 0.02 µM,0.625
same,relative viability,NCI-H520; first compound 0.2 µM,0.508
same,relative viability,NCI-H520; first compound 0.6325 µM,0.474
same,relative viability,NCI-H520; first compound 2 µM,0.337
same,relative viability,CAL-12T; first compound 0.02 µM,1.27
same,relative viability,CAL-12T; first compound 0.2 µM,1.15
same,relative viability,CAL-12T; first compound 0.6325 µM,1.33
same,relative viability,CAL-12T; first compound 2 µM,1.18
same,relative viability,PC-14; first compound 0.02 µM,0.133
same,relative viability,PC-14; first compound 0.2 µM,0.114
same,relative viability,PC-14; first compound 0.6325 µM,0.118
same,relative viability,PC-14; first compound 2 µM,0.111
same,relative viability,NCI-H460; first compound 0.02 µM,0.0672
same,relative viability,NCI-H460; first compound 0.2 µM,0.0368
same,relative viability,NCI-H460; first compound 0.6325 µM,0.0538
same,relative viability,NCI-H460; first compound 2 µM,0.0548
same,relative viability,SK-MES-1; first compound 0.02 µM,0.923
same,relative viability,SK-MES-1; first compound 0.2 µM,0.905
same,relative viability,SK-MES-1; first compound 0.6325 µM,0.886
same,relative viability,SK-MES-1; first compound 2 µM,0.466
same,relative viability,NCI-H2170; first compound 0.02 µM,0.25
same,relative viability,NCI-H2170; first compound 0.2 µM,0.253
same,relative viability,NCI-H2170; first compound 0.6325 µM,0.277
same,relative viability,NCI-H2170; first compound 2 µM,0.202
